Measured values taken from patent US12054498B2, “Heteroaromatic macrocyclic ether chemotherapeutic agents” (Nuvalent, Inc., priority 2020, dated 2024).

How the values were obtained:
ALK-wt = biological target: T1, ALK-wt (Homo sapiens, UniProt Q9UM73); experiment: Biochemical kinase assay, ALK-wt kinase domain; settings: apparent inhibitory constant, Morrison equation; ATP 2 mM in substrate solution; read-out: ALK-wt Ki^app
T1 construct: purchased Carna 08-518
In short: (§1)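 Compound in DMSO added first, then substrate solution (ATP 2 mM; AQT0101 or AQT0104, 26 μM; pH 7.5 HEPES, 10 mM MgCl2), then kinase solution with enzyme at 0.5–3 nM depending on construct. Kinetic read every 2 min for 120 min at 30° C; Ki^app by Morrison regression.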

ALK L1196M/G1202R = biological target: T2, ALK L1196M/G1202R (Homo sapiens, UniProt Q9UM73, G1202R/L1196M); experiment: Biochemical kinase assay, ALK L1196M/G1202R kinase domain; settings: apparent inhibitory constant, Morrison equation; ATP 2 mM in substrate solution; read-out: ALK-L1196M-G1202R Ki^app
T2 construct: purchased SignalChem A19-12NG
T2 sequence (Q9UM73 1116-1392 L1196M/G1202R limits assumed): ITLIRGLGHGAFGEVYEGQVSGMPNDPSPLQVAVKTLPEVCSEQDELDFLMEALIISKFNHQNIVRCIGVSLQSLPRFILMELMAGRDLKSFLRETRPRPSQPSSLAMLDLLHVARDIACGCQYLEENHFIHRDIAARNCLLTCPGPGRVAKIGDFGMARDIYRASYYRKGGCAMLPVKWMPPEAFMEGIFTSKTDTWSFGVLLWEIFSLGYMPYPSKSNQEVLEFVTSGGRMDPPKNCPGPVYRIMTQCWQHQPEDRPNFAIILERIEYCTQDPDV
In short: as §1

ROS1-wt = biological target: T3, ROS1-wt (Homo sapiens, UniProt P08922); experiment: Biochemical kinase assay, ROS1-wt kinase domain; settings: apparent inhibitory constant, Morrison equation; ATP 2 mM in substrate solution; read-out: ROS1-wt Ki^app
T3 construct: purchased Carna 08-163
T3 sequence (P08922 1945-2222 limits assumed): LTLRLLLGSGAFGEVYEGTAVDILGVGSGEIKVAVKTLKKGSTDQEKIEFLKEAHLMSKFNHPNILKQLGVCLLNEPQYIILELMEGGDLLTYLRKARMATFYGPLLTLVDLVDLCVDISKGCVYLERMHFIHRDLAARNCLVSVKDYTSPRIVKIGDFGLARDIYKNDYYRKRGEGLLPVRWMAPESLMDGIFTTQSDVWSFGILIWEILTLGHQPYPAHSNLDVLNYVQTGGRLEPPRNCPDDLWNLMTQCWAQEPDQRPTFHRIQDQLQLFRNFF
In short: (§2)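 Kinetic read: 485 nm, 2-min intervals, 120 min, 30 °C. Substrate mix — ATP 2 mM, AQT0101 26 μM, HEPES 50 mM pH 7.5, MgCl2 10 mM. Output: Ki^app, Morrison equation.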

ROS1-G2032R = biological target: T4, ROS1-G2032R (Homo sapiens, UniProt P08922, G2032R); experiment: Biochemical kinase assay, ROS1-G2032R kinase domain; settings: apparent inhibitory constant, Morrison equation; ATP 2 mM in substrate solution; read-out: ROS1-G2032R Ki^app
T4 construct: purchased SignalChem R14-12BG
T4 sequence (P08922 1945-2222 G2032R limits assumed): as the sequence (P08922 1945-2222 limits assumed) above, with G88R counted along it
In short: as §2

TRKA-wt = biological target: T5, TRKA-wt (Homo sapiens, UniProt P04629); experiment: Biochemical kinase assay, TRKA-wt kinase domain; settings: apparent inhibitory constant, Morrison equation; ATP 2 mM in substrate solution; read-out: TRKA-wt Ki^app
T5 construct: or TRKA-wt (1 nM, BPS Bio, 40280) kinase domains in buffer; purchased BPS Bio 40280
T5 sequence (P04629 510-781 limits assumed): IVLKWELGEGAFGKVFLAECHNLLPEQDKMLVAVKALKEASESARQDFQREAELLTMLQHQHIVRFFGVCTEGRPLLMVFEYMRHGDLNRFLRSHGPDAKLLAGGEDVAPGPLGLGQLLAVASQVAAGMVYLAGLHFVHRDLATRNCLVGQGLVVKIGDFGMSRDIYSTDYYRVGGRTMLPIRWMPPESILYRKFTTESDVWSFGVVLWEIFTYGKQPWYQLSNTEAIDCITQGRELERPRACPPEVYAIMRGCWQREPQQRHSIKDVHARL
In short: as §1

[1] = biological target: T6, Ba/F3 cells CD74-ROS1 wild-type (wt) (Homo sapiens, UniProt P08922); experiment: Ba/F3 cell proliferation assay, CD74-ROS1 wild-type; format: cell-based; settings: 72 hours, CellTiter-Glo
T6 construct: fusion of the C-terminus of ROS1 with the N-terminus of various partner proteins; host or cells: Ba/F3 (RIKEN), retroviral pMSCV-puro; the other entry of the earlier key: CD74 (P04233, HLA class II histocompatibility antigen gamma chain)
T6 sequence (P08922 1883-2347 limits assumed): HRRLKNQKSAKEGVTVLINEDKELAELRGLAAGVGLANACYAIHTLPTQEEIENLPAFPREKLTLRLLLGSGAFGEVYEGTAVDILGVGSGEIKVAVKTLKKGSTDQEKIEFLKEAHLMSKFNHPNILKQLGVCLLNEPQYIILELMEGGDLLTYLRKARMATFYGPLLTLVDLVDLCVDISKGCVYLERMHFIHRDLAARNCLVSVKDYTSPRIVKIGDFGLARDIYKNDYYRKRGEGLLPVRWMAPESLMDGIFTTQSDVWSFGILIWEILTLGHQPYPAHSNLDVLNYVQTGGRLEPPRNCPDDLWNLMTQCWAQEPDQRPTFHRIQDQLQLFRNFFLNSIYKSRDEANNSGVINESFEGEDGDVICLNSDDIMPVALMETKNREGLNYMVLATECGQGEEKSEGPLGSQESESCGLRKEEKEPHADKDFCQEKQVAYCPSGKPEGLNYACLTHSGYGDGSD
In short: (§3)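 IL-3-independent Ba/F3 CD74-ROS1 lines, puromycin-selected monoclones; 1,000 cells/well, plated 1 d before dosing; 3-fold serial dilutions, 72 h; CellTiter-Glo luminescence; IC50 by 4-parameter logistic regression.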

[2] = biological target: T7, Ba/F3 cells CD74-ROS1 G2032R (Homo sapiens, UniProt P08922, G2032R); experiment: Ba/F3 cell proliferation assay, CD74-ROS1 G2032R; format: cell-based; settings: 72 hours, CellTiter-Glo
T7 construct: fusion of the C-terminus of ROS1 with the N-terminus of various partner proteins; host or cells: Ba/F3 (RIKEN), retroviral pMSCV-puro; the other entry of the earlier key: CD74 (P04233, HLA class II histocompatibility antigen gamma chain)
T7 sequence (P08922 1883-2347 G2032R limits assumed): as the sequence (P08922 1883-2347 limits assumed) above, with G150R counted along it
In short: as §3

[3] = biological target: T8, Ba/F3 cells EML4-ALK wt (variant 1) (Homo sapiens, UniProt Q9UM73); experiment: Ba/F3 cell proliferation assay, EML4-ALK wt (variant 1); format: cell-based; settings: 72 hours, CellTiter-Glo
T8 construct: echinoderm microtubule-associated protein-like 4 (EML4) gene and the ALK tyrosine kinase domain; host or cells: Ba/F3 (RIKEN), retroviral pMSCV-puro; the other entry of the earlier key: EML4 (Q9HC35, Echinoderm microtubule-associated protein-like 4)
T8 sequence (Q9UM73 with tags, fused parts or gaps): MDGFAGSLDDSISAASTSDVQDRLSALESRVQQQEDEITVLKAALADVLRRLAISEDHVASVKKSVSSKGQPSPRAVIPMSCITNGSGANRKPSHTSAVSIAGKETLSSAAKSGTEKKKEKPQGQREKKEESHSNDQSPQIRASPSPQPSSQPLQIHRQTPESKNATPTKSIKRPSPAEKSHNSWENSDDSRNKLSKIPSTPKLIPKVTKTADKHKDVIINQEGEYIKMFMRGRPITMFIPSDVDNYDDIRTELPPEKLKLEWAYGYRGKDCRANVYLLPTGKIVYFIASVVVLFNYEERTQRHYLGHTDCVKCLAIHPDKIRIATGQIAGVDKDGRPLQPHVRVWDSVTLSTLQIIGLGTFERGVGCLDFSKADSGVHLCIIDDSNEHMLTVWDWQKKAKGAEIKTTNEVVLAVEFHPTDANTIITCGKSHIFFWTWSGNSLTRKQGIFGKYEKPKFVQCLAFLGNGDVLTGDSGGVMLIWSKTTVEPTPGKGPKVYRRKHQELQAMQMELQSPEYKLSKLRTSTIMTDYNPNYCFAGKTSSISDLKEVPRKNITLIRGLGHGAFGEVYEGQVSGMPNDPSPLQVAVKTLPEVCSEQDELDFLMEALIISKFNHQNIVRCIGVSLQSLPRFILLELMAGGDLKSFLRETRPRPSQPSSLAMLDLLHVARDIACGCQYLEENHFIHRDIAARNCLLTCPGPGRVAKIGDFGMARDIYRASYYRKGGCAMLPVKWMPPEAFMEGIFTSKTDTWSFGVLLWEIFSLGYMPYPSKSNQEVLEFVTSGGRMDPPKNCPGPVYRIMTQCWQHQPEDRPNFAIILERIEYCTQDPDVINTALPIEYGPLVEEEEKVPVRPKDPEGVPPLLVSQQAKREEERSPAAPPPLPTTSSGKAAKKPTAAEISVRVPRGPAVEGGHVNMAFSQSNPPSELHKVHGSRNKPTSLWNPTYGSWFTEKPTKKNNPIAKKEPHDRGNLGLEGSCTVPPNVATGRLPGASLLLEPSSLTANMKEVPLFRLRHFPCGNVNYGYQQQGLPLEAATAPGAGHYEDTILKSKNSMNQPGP
In short: (§4)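 IL-3-independent Ba/F3 monoclones, puromycin-selected, transduced with fusion genes; 1,000 cells/well, 1 day rest, 3-fold compound series, 72 h. Read: CellTiter-Glo luminescence. IC50 from % inhibition vs concentration, 4-parameter logistic.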

[4] = biological target: T9, Ba/F3 cells EML4-ALK L1196M/G1202R (variant 1) (Homo sapiens, UniProt Q9UM73, G1202R/L1196M); experiment: Ba/F3 cell proliferation assay, EML4-ALK L1196M/G1202R (variant 1); format: cell-based; settings: 72 hours, CellTiter-Glo
T9 construct: echinoderm microtubule-associated protein-like 4 (EML4) gene and the ALK tyrosine kinase domain; host or cells: Ba/F3 (RIKEN), retroviral pMSCV-puro; the other entry of the earlier key: EML4 (Q9HC35, Echinoderm microtubule-associated protein-like 4)
T9 sequence (Q9UM73 with tags, fused parts or gaps L1196M/G1202R): as the sequence (Q9UM73 with tags, fused parts or gaps) above, with L635M, G641R counted along it
In short: as §4

Ba/F3 cells TPM3-TRKA = biological target: T10, Ba/F3 cells TPM3-TRKA (Homo sapiens, UniProt P04629); experiment: Ba/F3 cell proliferation assay, TPM3-TRKA; format: cell-based; settings: 72 hours, CellTiter-Glo, read-out: TPM3-NTRK1-wt IC50
T10 construct: host or cells: Ba/F3 (RIKEN), retroviral pMSCV-puro; the other entry of the earlier key: TPM3 (P06753, Tropomyosin alpha-3 chain)
T10 sequence (P04629 510-796 limits assumed): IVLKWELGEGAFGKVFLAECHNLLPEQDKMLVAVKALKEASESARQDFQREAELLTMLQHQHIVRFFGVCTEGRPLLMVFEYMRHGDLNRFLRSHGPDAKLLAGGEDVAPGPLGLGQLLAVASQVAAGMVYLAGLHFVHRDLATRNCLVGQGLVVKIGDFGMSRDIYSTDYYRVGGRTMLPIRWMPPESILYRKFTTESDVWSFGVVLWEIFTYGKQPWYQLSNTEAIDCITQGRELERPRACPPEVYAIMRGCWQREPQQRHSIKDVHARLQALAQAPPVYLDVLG
In short: as §4

[5] = test system: TPM3-NTRK1-wt IC50 / primary target IC50 (e.g. CD74-ROS1-wt); experiment: TRKA selectivity in Ba/F3 cells (TRKA potency divided by primary target potency); format: cell-based; settings: for TPM3-NTRK1-wt/CD74-ROS1-G2032R selectivity ratio: TRKA potency / CD74-ROS1-G2032R potency; for TPM3-NTRK1-wt/CD74-ROS1-wt selectivity ratio: TRKA potency / CD74-ROS1-wt potency; for TPM3-NTRK1-wt/EML4-ALK-L1196M-G1202R selectivity ratio: TRKA potency / EML4-ALK-L1196M-G1202R potency; for TPM3-NTRK1-wt/EML4-ALK-wt selectivity ratio: TRKA potency / EML4-ALK-wt potency
Method: TRKA selectivity was calculated by dividing a compound's TRKA potency by its primary target potency (e.g. TPM3-NTRK1-wt IC50/CD74-ROS1-wt IC50). Compound selectivity can be interpreted by binning ratio values: bin A for very high selectivity, ratio >30-fold; bin B for high selectivity, ratio >10-fold; bin C for moderate selectivity, ratio ≥1; and bin D for low selectivity, ratio <1. […] (nd=not determined).

T1 sequence (Q9UM73 1116-1392 limits assumed): as the sequence (Q9UM73 1116-1392 L1196M/G1202R limits assumed) above, with M81L, R87G counted along it

Ki (ALK-wt) | Ki (ALK L1196M/G1202R) | Ki (ROS1-wt) | Ki (ROS1-G2032R) | Ki (TRKA-wt) | IC50 [1] | IC50 [2] | IC50 [3] | IC50 [4] | IC50 (Ba/F3 cells TPM3-TRKA) | Structure (SMILES) | TPM3-NTRK1-wt/CD74-ROS1-G2032R selectivity ratio [5] | TPM3-NTRK1-wt/CD74-ROS1-wt selectivity ratio [5] | TPM3-NTRK1-wt/EML4-ALK-L1196M-G1202R selectivity ratio [5] | TPM3-NTRK1-wt/EML4-ALK-wt selectivity ratio [5]
< 50 nM | < 50 nM | < 50 nM | < 50 nM | > 500 nM | 0.1 to 50 nM | 0.1 to 50 nM | 0.1 to 50 nM | 50 to 500 nM | > 500 nM | C[C@H]1Oc2cc(cnc2N)-c2c(C3CCC3)nnn2Cc2nn(C)nc2-c2ccc(F)cc21 [Example 30, (19R)-3-cyclobutyl-16-fluoro-10,19-dimethyl-20-oxa-4,5,6,9,10,11,23-heptaazapentacyclo[19.3.1.0^2,^6.0^8,^12.0^13,^18]pentacosa-1(24),2,4,8,11,13,15,17,21(25),22-decaen-22-amine] | A (bin A for very high selectivity, ratio >30-fold) | A (bin A for very high selectivity, ratio >30-fold) | C (bin C for moderate selectivity, ratio ≥1) | A (bin A for very high selectivity, ratio >30-fold)
< 50 nM | < 50 nM | < 50 nM | < 50 nM | 50 to 500 nM | 0.1 to 50 nM | 0.1 to 50 nM | 0.1 to 50 nM | 50 to 500 nM | 50 to 500 nM | CCn1ncc2c1-c1cnc(N)c(c1)O[C@H](C)c1cc(F)ccc1-c1nc(C)nn1C2 [Example 33, (19R)-3-ethyl-16-fluoro-10,19-dimethyl-20-oxa-hexaazapentacyclo[19.3.1.0^2,^6.0^8,^12.0^13,^18]pentacosa-1(24),2(6),4,9,11,13,15,17,21(25),22-decaen-22-amine] | A (bin A for very high selectivity, ratio >30-fold) | A (bin A for very high selectivity, ratio >30-fold) | C (bin C for moderate selectivity, ratio ≥1) | A (bin A for very high selectivity, ratio >30-fold)
< 50 nM | < 50 nM | < 50 nM | < 50 nM | 50 to 500 nM | 0.1 to 50 nM | 0.1 to 50 nM | 0.1 to 50 nM | 0.1 to 50 nM | 50 to 500 nM | CCn1ncc2c1-c1cnc(N)c(c1)OC(C)c1cc(F)ccc1-c1cccnc1C2 (centres unmarked) [Example 34, 3-ethyl-17-fluoro-20-methyl-21-oxa-3,4,9,24-tetraazapentacyclo[20.3.1.0^2,^6.0^8,^13.0^14,^19]hexacosa-1(25),2(6),4,8(13),9,11,14,16,18,22(26),23-undecaen-23-amine] | A (bin A for very high selectivity, ratio >30-fold) | A (bin A for very high selectivity, ratio >30-fold) | B (bin B for high selectivity, ratio >10-fold) | A (bin A for very high selectivity, ratio >30-fold)
< 50 nM | < 50 nM | < 50 nM | < 50 nM | 50 to 500 nM | 0.1 to 50 nM | 0.1 to 50 nM | 0.1 to 50 nM | 50 to 500 nM | > 500 nM | CCn1ncc2c1-c1cnc(N)c(c1)O[C@H](C)c1cc(F)ccc1-c1ncnn1C2 [Example 35, (19R)-3-ethyl-16-fluoro-19-methyl-20-oxa-3,4,8,9,11,23-hexaazapentacyclo[19.3.1.0^2,^6.0^8,^12.0^13,^18]pentacosa-1(24),2(6),4,9,11,13,15,17,21(2 5),22-decaen-22-amine] | A (bin A for very high selectivity, ratio >30-fold) | A (bin A for very high selectivity, ratio >30-fold) | C (bin C for moderate selectivity, ratio ≥1) | A (bin A for very high selectivity, ratio >30-fold)
< 50 nM | 50 to 500 nM | < 50 nM | < 50 nM | > 500 nM | 0.1 to 50 nM | 0.1 to 50 nM | 0.1 to 50 nM | 50 to 500 nM | > 500 nM | CCn1ncc2c1-c1cnc(N)c(c1)OC(C)c1cc(F)cnc1-c1ccnn1C2 (centres unmarked) [Example 37, 3-ethyl-16-fluoro-19-methyl-20-oxa-3,4,8,9,14,23-hexaazapentacyclo[19.3.1.0^2,^6.0^8,^12.0^13,^18]pentacosa-1(24),2(6),4,9,11,13,15,17,21(25),22-decaen-22-amine] | A (bin A for very high selectivity, ratio >30-fold) | A (bin A for very high selectivity, ratio >30-fold) | B (bin B for high selectivity, ratio >10-fold) | A (bin A for very high selectivity, ratio >30-fold)
< 50 nM | < 50 nM | < 50 nM | < 50 nM | 50 to 500 nM | 0.1 to 50 nM | 0.1 to 50 nM | 0.1 to 50 nM | 50 to 500 nM | > 500 nM | CCn1ncc2c1-c1cnc(N)c(c1)O[C@H](C)c1cc(F)ccc1-n1ncnc1C2 [Example 38, (19R)-3-ethyl-16-fluoro-19-methyl-20-oxa-3,4,9,11,12,23-hexaazapentacyclo[19.3.1.0^2,^6.0^8,^12.0^13,^18]pentacosa-1(24),2(6),4,8,10,13,15,17,21(25),22-decaen-22-amine] | A (bin A for very high selectivity, ratio >30-fold) | A (bin A for very high selectivity, ratio >30-fold) | C (bin C for moderate selectivity, ratio ≥1) | A (bin A for very high selectivity, ratio >30-fold)
< 50 nM | < 50 nM | < 50 nM | < 50 nM | > 500 nM | 0.1 to 50 nM | 0.1 to 50 nM | 0.1 to 50 nM | 50 to 500 nM | > 500 nM | C[C@H]1Oc2cc(cnc2N)-c2c(cnn2C2CCC2)Cn2ncnc2-c2ccc(F)cc21 [Example 39, (19R)-3-cyclobutyl-16-fluoro-19-methyl-20-oxa-3,4,8,9,11,23-hexaazapentacyclo[19.3.1.0^2,^6.0^8,^12.0^13,^18]pentacosa-1(24),2(6),4,9,11,13,15,17,21(25),22-decaen-22-amine] | A (bin A for very high selectivity, ratio >30-fold) | A (bin A for very high selectivity, ratio >30-fold) | B (bin B for high selectivity, ratio >10-fold) | A (bin A for very high selectivity, ratio >30-fold)
